Broadly, the IC50 is the point on the concentration scale where inhibition reaches its midpoint.

Some results are limits rather than exact numbers.

T1 sequence (Q9Y5Y9 whole entry): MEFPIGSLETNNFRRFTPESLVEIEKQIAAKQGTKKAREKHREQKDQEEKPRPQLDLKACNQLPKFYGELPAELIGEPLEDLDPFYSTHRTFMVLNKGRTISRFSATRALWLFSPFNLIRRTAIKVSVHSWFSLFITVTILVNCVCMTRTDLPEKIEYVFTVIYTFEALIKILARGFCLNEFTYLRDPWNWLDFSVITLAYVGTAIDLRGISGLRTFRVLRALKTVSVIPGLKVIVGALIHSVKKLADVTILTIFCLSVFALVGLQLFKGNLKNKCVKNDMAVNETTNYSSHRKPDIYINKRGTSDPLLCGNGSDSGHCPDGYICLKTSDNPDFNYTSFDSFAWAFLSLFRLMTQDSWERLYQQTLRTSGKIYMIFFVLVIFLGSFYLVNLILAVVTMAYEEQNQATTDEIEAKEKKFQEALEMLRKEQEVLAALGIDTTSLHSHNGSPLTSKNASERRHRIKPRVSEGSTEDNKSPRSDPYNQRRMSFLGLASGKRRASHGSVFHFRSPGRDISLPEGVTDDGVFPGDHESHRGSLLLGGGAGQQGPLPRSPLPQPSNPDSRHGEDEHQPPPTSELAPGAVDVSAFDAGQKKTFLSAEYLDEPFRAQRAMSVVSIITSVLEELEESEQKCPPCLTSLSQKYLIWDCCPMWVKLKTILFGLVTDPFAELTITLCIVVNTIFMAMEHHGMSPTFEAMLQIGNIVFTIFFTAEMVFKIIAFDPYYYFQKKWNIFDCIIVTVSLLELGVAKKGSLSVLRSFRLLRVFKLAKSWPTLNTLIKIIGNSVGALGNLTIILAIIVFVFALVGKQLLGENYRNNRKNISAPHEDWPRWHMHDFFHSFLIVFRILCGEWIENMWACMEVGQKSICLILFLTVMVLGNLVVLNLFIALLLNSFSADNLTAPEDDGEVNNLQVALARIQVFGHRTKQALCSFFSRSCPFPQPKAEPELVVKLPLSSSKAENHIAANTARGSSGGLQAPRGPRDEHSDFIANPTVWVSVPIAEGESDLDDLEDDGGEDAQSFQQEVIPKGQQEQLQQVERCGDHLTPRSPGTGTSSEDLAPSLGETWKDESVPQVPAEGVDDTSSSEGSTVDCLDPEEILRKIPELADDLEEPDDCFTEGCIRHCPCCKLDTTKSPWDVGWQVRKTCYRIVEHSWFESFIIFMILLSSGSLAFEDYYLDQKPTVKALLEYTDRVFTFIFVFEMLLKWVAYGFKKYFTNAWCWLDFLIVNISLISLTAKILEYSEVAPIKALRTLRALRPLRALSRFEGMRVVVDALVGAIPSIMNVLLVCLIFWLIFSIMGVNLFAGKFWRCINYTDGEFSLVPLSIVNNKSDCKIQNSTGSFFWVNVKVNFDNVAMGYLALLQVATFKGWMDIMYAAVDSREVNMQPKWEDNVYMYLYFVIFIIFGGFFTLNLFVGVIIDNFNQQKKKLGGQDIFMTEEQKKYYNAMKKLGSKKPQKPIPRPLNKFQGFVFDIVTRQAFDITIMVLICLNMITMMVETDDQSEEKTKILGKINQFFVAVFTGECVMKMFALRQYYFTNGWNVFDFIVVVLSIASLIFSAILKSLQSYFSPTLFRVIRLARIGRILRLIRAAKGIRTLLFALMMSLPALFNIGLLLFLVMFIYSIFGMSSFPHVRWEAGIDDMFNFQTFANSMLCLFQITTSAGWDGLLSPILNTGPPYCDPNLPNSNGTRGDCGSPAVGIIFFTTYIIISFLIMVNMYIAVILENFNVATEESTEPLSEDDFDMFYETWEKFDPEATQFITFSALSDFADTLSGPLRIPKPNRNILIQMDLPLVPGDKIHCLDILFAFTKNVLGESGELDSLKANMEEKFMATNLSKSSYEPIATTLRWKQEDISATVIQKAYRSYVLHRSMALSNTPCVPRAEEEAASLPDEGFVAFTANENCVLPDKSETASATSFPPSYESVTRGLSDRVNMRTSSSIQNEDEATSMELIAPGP
T1 sequence (Q9NY72 23-215 partner): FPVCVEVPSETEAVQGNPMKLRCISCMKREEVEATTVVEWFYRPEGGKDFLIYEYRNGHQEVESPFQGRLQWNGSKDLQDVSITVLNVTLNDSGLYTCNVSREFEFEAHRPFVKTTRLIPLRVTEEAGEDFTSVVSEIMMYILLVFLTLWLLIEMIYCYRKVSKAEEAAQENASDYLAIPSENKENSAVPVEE

The test concerns the target T1, human NaV1.8 (Homo sapiens, UniProt Q9Y5Y9).
T1 construct: expressed in transfected cells; host or cells: HEK
The test can be described thus: Electrophysiology: voltage-clamp recordings (whole-cell automated patch clamp, Qube384). Particulars: HEK-NaV1.8 with b3 recombinant cell line, ambient room temperature, read-out: Potency category (human NaV1.8 IC50). It counts as cell-based. Here is the method:
The following NaV1.8 recombinant cell line was used for recordings: HEK-NaV1.8 (NM_006514.1) with b3 (NM_018400.3).
Sodium currents were measured using the patch clamp technique in the whole-cell configuration using the Qube384 (Sophion A/S, Copenhagen, Denmark) automated voltage clamp platform. "Multi hole" plates were used for the cell line expressing NaV1.8 while "single hole" plates were used for the recombinant cell lines expressing the other subtypes. Appropriate filters (for minimum seal resistance and minimum current size) and series resistance compensation (for high quality sodium channel recordings) were applied. Data was collected at ambient room temperature.
The recording […] solution contained (in mM): NaCl 145 mM, KCl 4 mM, CaCl2 2 mM, MgCl2 1 mM, HEPES 10 mM, Glucose 10 mM, pH 7.4 (NaOH). The […] recording solution contained (in mM): CsF 120 mM, CsCl 20 mM, NaCl 10 mM, EGTA 10 mM, HEPES 10 mM, pH 7.2 (CsOH). Currents were recorded at 25 kHz sampling frequency and filtered at 5 kHz. Series resistance compensation was applied at 65%.
Vehicle (VEH) is the control condition where cells are exposed to 0.3 % DMSO without compound. All runs include VEH controls being exposed to the same voltage protocols to assess non-compound related phenomena such as run down and then used to isolate compound dependent effects on currents.
To check for state-dependence inhibition, the following voltage-sequence was applied every 20 seconds: From a resting membrane potential of-120 mV, the first test pulse (P1; 20 ms to -10 mV) was applied to check for channels in the Resting State followed by a brief recovery (20 ms to -120 mV), then holding the membrane voltage to V1/2 (4 seconds at voltage to obtain half the channel at Rest and half Inactivated) with a subsequent second test pulse (P2; 20 ms to -10 mV) to check for channels in the Inactivated State, followed by another brief recovery (20 ms to -120 mV) and a final third test pulse (P3; 20 ms to -10 mV) to check for recovered channels.
To check for frequency-dependent inhibition, a 10 Hz protocol and a 20 Hz protocol were applied; namely,
From a resting membrane potential of -120 mV, 40-pulses (10 ms to -10 mV) was applied at 10 Hz (at 100 ms between pulses) and then at 20 Hz (at 50 ms between pulses).
Each parameter was recorded (P1, P2, P3, P40 from 10Hz and P40 from 20Hz) during a control period (lasting ~ 5 minutes) when establishing the baseline and during compound period (lasting ~ 12 minutes) when test compound (or vehicle) was applied. For each parameter, the value at the end of the compound period was normalized to the vehicle baseline; as follows Normalized Inhibition (NormCPD) = (CPD Valueend CPD period)/(VEH Valueend Control Period) [formula]
To adjust for any variance in the Na^+ current signal during the compound period (owing to cumulative inactivation independent of compound or shifts in biophysics over time), a dedicated segment of the recording wells in each 384 plate were dedicated to having only vehicle exposure. These vehicle-only recordings were used to correct for any apparent "run-up" or "run-down" in the experiment. Normalized Inhibition (NormVEH) = (VEH Valueend CPD period)/(VEH Valueend Control Period) [formula]
The adjusted inhibition was calculated as follows: % Inhibitioncorrected = 100 × (NormCPD −NormVEH)/(100−NormVEH) [formula]
Percent inhibition was determined and IC50 values were calculated using a 4 parameter logistic model within XLFit Software (IDBS, Boston MA): % Inhibitioncorrected = A + ((B−A))/((1 + (((x)/(C)))^D) [formula] where A and B are the maximal and minimum inhibition respectively, C is the IC50 concentration and D is the (Hill) slope.
For the molecule `NS(=O)(=O)c1cccc(NC(=O)c2c3ccccc3nn2CC2CCCO2)c1` (racemic) [SC-16, N-(3-sulfamoylphenyl)-2-((tetrahydrofuran-2-yl)methyl)-2H-indazole-3-carboxamide], the IC50 was 1000 to 10000 nM. `C[C@@H](C1CCCCC1)n1nc2ccccc2c1C(=O)Nc1cccc(S(C)(=O)=O)c1` (single isomer, unassigned) [SC-74a]: the concentration for half-maximal inhibition (IC50) is 100 to 1000 nM. The figure for `C[C@H](C1CCCCC1)n1nc2ccccc2c1C(=O)Nc1cccc(S(C)(=O)=O)c1` (single isomer, unassigned) [SC-74b] is 1000 to 10000 nM. The figure for `Cc1ccc(Cl)c2c(C(=O)Nc3ccnc(C(N)=O)c3)n(CC3CCC(F)(F)C3)nc12` (single isomer, unassigned) [SC-82a, N-(2-carbamoylpyridin-4-yl)-4-chloro-2-((3,3-difluorocyclopentyl)methyl)-7-methyl-2H-indazole-3-carboxamide] is at most 100 nM; for `Cc1ccc(Cl)c2c(C(=O)Nc3ccnc(C(N)=O)c3)n(CC3CCC(F)(F)C3)nc12` (single isomer, unassigned) [SC-82b, N-(2-carbamoylpyridin-4-yl)-4-chloro-2-((3,3-difluorocyclopentyl)methyl)-7-methyl-2H-indazole-3-carboxamide] it is at most 100 nM. The figure for `Cc1ccc(Cl)c2c(C(=O)Nc3cccc(S(N)(=O)=O)c3)n(CC3CCCCO3)nc12` (single isomer, unassigned) [SC-84a, 4-chloro-7-methyl-N-(3-sulfamoylphenyl)-2-((tetrahydro-2H-pyran-2-yl)methyl)-2H-indazole-3-carboxamide] is at most 100 nM; for `Cc1cccc2c(C(=O)Nc3ccnc(S(N)(=O)=O)c3)n(C[C@H]3CCCCO3)nc12` (single isomer, unassigned) [SC-88b] it is at most 100 nM; for `O=C(Nc1ccnc(O)c1)c1c2ccc(F)cc2nn1CC1CCCCC1` [SC-05, 2-(cyclohexylmethyl)-6-fluoro-N-(2-hydroxypyridin-4-yl)indazole-3-carboxamide] it is at most 100 nM. As to `O=C(Nc1ccnc(O)c1)c1c2ccc(F)cc2nn1CC1CCC(F)(F)CC1` [SC-06, 2-((4,4-difluorocyclohexyl)methyl)-6-fluoro-N-(2-hydroxypyridin-4-yl)-2H-indazole-3-carboxamide], the IC50 fell in the range of 100 to 1000 nM. As to `O=C(Nc1ccnc(O)c1)c1c2ccccc2nn1CC1CCCCC1` [SC-10, 2-(cyclohexylmethyl)-N-(2-hydroxypyridin-4-yl)-2H-indazole-3-carboxamide], the IC50 was in the range of 100 to 1000 nM. The figure for `CS(=O)(=O)c1cccc(NC(=O)c2c3ccc(F)cc3nn2CC2CCCCC2)c1` [SC-11, 2-(cyclohexylmethyl)-6-fluoro-N-(3-methylsulfonylphenyl)indazole-3-carboxamide] is at most 100 nM; for `O=C(Nc1cc[nH]c(=O)c1)c1c2ccccc2nn1CC1CCC1` [SC-12, 2-(cyclobutylmethyl)-N-(2-oxo-1,2-dihydropyridin-4-yl)-2H-indazole-3-carboxamide] it is 1000 to 10000 nM; for `O=C(Nc1ccnc(O)c1)c1c2ccccc2nn1CC1CCCCCC1` [SC-13, 2-(cyclohcptylmethyl)-N-(2-hydroxypyridin-4-yl)indazole-3-carboxamide] it is 100 to 1000 nM.

As to `CS(=O)(=O)c1cccc(NC(=O)c2c3ccccc3nn2CC2CCOCC2)c1` [SC-14, N-(3-methylsulfonylphenyl)-2-(oxan-4-ylmethyl)indazole-3-carboxamide], the IC50 was 1000 to 10000 nM. The figure for `NS(=O)(=O)c1cccc(NC(=O)c2c3ccccc3nn2CC2CCOCC2)c1` [SC-15, N-(3-sulfamoylphenyl)-2-((tetrahydro-2H-pyran-4-yl)methyl)-2H-indazole-3-carboxamide] is 100 to 1000 nM; for `NC(=O)c1cccc(NC(=O)c2c3ccccc3nn2CC2CCCCC2)c1` [SC-17, N-(3-carbamoylphenyl)-2-(cyclohexylmethyl)indazole-3-carboxamide] it is at most 100 nM.

`C[S+]([O-])c1cccc(NC(=O)c2c3ccc(F)cc3nn2CC2CCCCC2)c1` (stereo not shown) [SC-19, 2-(cyclohexylmethyl)-6-fluoro-N-(3-(methylsulfinyl)phenyl)-2H-indazole-3-carboxamide]: the IC50 is 100 to 1000 nM. The figure for `O=C(Nc1ccnc(O)c1)c1c2cccc(F)c2nn1CC1CCCCC1` [SC-20, 2-(cyclohexylmethyl)-7-fluoro-N-(2-hydroxypyridin-4-yl)indazole-3-carboxamide] is 100 to 1000 nM; for `NC(=O)c1cc(NC(=O)c2c3ccccc3nn2CC2CCOCC2)ccc1F` [SC-21, N-(3-Carbamoyl-4-fluorophenyl)-2-((tetrahydro-2H-pyran-4-yl)methyl)-2H-indazole-3-carboxamide] it is 1000 to 10000 nM. The figure for `CS(=O)(=O)c1cccc(NC(=O)c2c3ccccc3nn2CC2CCC(F)(F)CC2)c1` [SC-22, 2-[(4,4-difluorocyclohexyl)methyl]-N-(3-methylsulfonylphenyl)indazole-3-carboxamide] is 100 to 1000 nM. With `O=C(Nc1ccnc(O)c1)c1c2ccccc2nn1CC1CCC(F)(F)CC1` [SC-24, 2-[(4,4-difluorocyclohexyl)methyl]-N-(2-hydroxypyridin-4-yl)indazole-3-carboxamide], the IC50 is 1000 to 10000 nM. The figure for `NC(=O)c1cc(NC(=O)c2c3ccccc3nn2CC2CCC(F)(F)CC2)ccc1F` [SC-25, N-(3-carbamoyl-4-fluorophenyl)-2-[(4,4-difluorocyclohexyl)methyl]indazole-3-carboxamide] is 100 to 1000 nM; for `CC(C)(O)c1cccc(NC(=O)c2c3ccccc3nn2CC2CCCCC2)c1` [SC-26, 2-(cyclohexylmethyl)-N-(3-(2-hydroxypropan-2-yl)phenyl)-2H-indazole-3-carboxamide] it is 1000 to 10000 nM; for `NS(=O)(=O)c1cccc(NC(=O)c2c3ccc(F)cc3nn2CC2CCCCC2)c1` [SC-28, 2-(cyclohexylmethyl)-6-fluoro-N-(3-sulfamoylphenyl)indazole-3-carboxamide] it is at most 100 nM.

`O=C(Nc1ccnc(O)c1)c1c2cc(F)ccc2nn1CC1CCCCC1` [SC-32, 2-(cyclohexylmethyl)-5-fluoro-N-(2-hydroxypyridin-4-yl)indazole-3-carboxamide]: the IC50 lay in the range of 100 to 1000 nM.

As to `CS(=O)(=O)n1cc(NC(=O)c2c3ccccc3nn2CC2CCCCC2)cn1` [SC-36, 2-(cyclohexylmethyl)-N-(1-(methylsulfonyl)-1H-pyrazol-4-yl)-2H-indazole-3-carboxamide], the half-inhibitory concentration (IC50) fell in the range of 100 to 1000 nM. `CS(=O)(=O)c1cccc(NC(=O)c2c3ccccc3nn2CC2CCCCC2)c1` [SC-37, 2-(cyclohexylmethyl)-N-(3-methylsulfonylphenyl)indazole-3-carboxamide]: the concentration for half-maximal inhibition (IC50) was at most 100 nM. For the molecule `NS(=O)(=O)c1cccc(NC(=O)c2c3ccc(F)cc3nn2CC2CCC(F)(F)CC2)c1` [SC-38, 2-[(4,4-difluorocyclohexyl)methyl]-6-fluoro-N-(3-sulfamoylphenyl)indazole-3-carboxamide], the 50% inhibitory concentration (IC50) was at most 100 nM.

With `Cn1ccc(NC(=O)c2c3ccccc3nn2CC2CCCCC2)cc1=O` [SC-39, 2-(cyclohexylmethyl)-N-(1-methyl-2-oxo-1,2-dihydropyridin-4-yl)-2H-indazole-3-carboxamide], the IC50 is 1000 to 10000 nM. The figure for `O=C(Nc1ccnc(O)c1)c1c2cccc(C(F)(F)F)c2nn1CC1CCCCC1` [SC-42, 2-(cyclohexylmethyl)-N-(2-hydroxypyridin-4-yl)-7-(trifluoromethyl)indazole-3-carboxamide] is at most 100 nM. The figure for `Cc1cccc2c(C(=O)Nc3cc[nH]c(=O)c3)n(CC3CCCCC3)nc12` [SC-43, 2-(cyclohexylmethyl)-7-methyl-N-(2-oxo-1,2-dihydropyridin-4-yl)-2H-indazole-3-carboxamide] is at most 100 nM.

(Values after patent EP4385980A1, “INDAZOLES AS INHIBITORS OF NAV1.8” (Grünenthal GmbH, priority 2022, dated 2024).)
